Experimental data reported in PubChem BioAssay (NCI).
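48-hour exposure; five concentrations; linearly interpolated endpoints. TGI marks complete inhibition of growth.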

What was measured:
Experiment in all cases: growth of human tumour cells (NCI), 48 h
HCT-15 colon = system: HCT-15 colon
HOP-62 NSCLC = system: HOP-62 NSCLC
SK-MEL-5 melanoma = system: SK-MEL-5 melanoma
NCI-H460 lung = system: NCI-H460 lung
OVCAR-5 ovarian = system: OVCAR-5 ovarian
HOP-92 NSCLC = system: HOP-92 NSCLC
TK-10 renal = system: TK-10 renal
MALME-3M melanoma = system: MALME-3M melanoma
HT29 colon = system: HT29 colon
RXF-631 renal = system: RXF-631 renal
OVCAR-3 ovarian = system: OVCAR-3 ovarian
LOX IMVI melanoma = system: LOX IMVI melanoma
NCI-H522 lung = system: NCI-H522 lung
CCRF-CEM leukemia = system: CCRF-CEM leukemia
UACC-62 melanoma = system: UACC-62 melanoma
NCI-H23 lung = system: NCI-H23 lung
SK-MEL-2 melanoma = system: SK-MEL-2 melanoma
SK-OV-3 ovarian = system: SK-OV-3 ovarian
U251 CNS = system: U251 CNS
NCI/ADR-RES ovarian = system: NCI/ADR-RES ovarian

Row | SMILES | TGI (HCT-15 colon) | TGI (HOP-62 NSCLC) | TGI (SK-MEL-5 melanoma) | TGI (NCI-H460 lung) | TGI (OVCAR-5 ovarian) | TGI (HOP-92 NSCLC) | TGI (TK-10 renal) | TGI (MALME-3M melanoma) | TGI (HT29 colon) | TGI (RXF-631 renal) | TGI (OVCAR-3 ovarian) | TGI (LOX IMVI melanoma) | TGI (NCI-H522 lung) | TGI (CCRF-CEM leukemia) | TGI (UACC-62 melanoma) | TGI (NCI-H23 lung) | TGI (SK-MEL-2 melanoma) | TGI (SK-OV-3 ovarian) | TGI (U251 CNS) | TGI (NCI/ADR-RES ovarian)
1 | CC(=O)OC1(C#N)CC2OC1C1C2N=NN1C(=O)OC(C)(C)C (stereo unspecified) | 55.9 µM | > 100 µM | > 100 µM | > 100 µM | > 100 µM | 75.3 µM | > 100 µM | 48.3 µM | > 100 µM | > 100 µM | > 100 µM | 69.4 µM | > 100 µM | > 100 µM | 45.9 µM | 77.7 µM | 68.9 µM | – | – | –
2 | COC(=O)CN(C)P(=O)(N1CC1)N1CC1 | > 100 µM | – | > 100 µM | – | > 100 µM | – | > 100 µM | > 100 µM | > 100 µM | > 100 µM | – | > 100 µM | > 100 µM | > 100 µM | > 100 µM | > 100 µM | > 100 µM | > 100 µM | > 100 µM | –
3 | COc1cc2c3c(c4cc(OC)c(OC)cc4c2cc1OC)C(=O)C1CCC(=O)N1C3 (stereo unspecified) | > 100 µM | 59.3 µM | > 100 µM | > 100 µM | – | 82.2 µM | 54.5 µM | 83 µM | – | – | > 100 µM | > 100 µM | 23.3 µM | 30.8 µM | > 100 µM | > 100 µM | > 100 µM | 61.1 µM | > 100 µM | > 100 µM
4 | CCOC(=O)c1csc(NC(=O)CN2CCN(C)CC2)n1 | > 100 µM | > 100 µM | > 100 µM | > 100 µM | > 100 µM | > 100 µM | > 100 µM | > 100 µM | > 100 µM | – | > 100 µM | > 100 µM | – | > 100 µM | > 100 µM | > 100 µM | > 100 µM | > 100 µM | > 100 µM | > 100 µM
5 | Cc1cccc(C(C)C)c1NC(=O)CC1Sc2ccccc2NC1=O (stereo unspecified) | > 100 µM | > 100 µM | > 100 µM | > 100 µM | > 100 µM | > 100 µM | > 100 µM | 94.2 µM | > 100 µM | > 100 µM | > 100 µM | > 100 µM | > 100 µM | > 100 µM | > 100 µM | > 100 µM | > 100 µM | > 100 µM | > 100 µM | –
6 | COc1cc(/C=C/C(=O)O)ccc1C(=O)OCc1ccccc1 | > 100 µM | > 100 µM | > 100 µM | > 100 µM | > 100 µM | > 100 µM | – | > 100 µM | > 100 µM | – | > 100 µM | > 100 µM | > 100 µM | > 100 µM | > 100 µM | > 100 µM | > 100 µM | > 100 µM | > 100 µM | > 100 µM
7 | O=C(CC(=O)c1ccccc1)CC(O)(c1ccccc1)c1ccccc1 | 23 µM | 12 µM | 13.7 µM | 16.3 µM | 25.6 µM | 19.5 µM | 42.1 µM | 25.4 µM | 23.7 µM | – | 17.3 µM | – | 13.6 µM | 26 µM | 14.9 µM | 18.8 µM | 22.2 µM | 76 µM | 14.9 µM | –
